Three compounds from US8153784B2, “Imaging of enzyme activity” (The General Hospital Corporation, priority 2004, dated 2012) can be followed below.

This assay concerns the target T1, human MPO embedded in Matrigel (Homo sapiens, UniProt P05164).
T1 construct: purchased BioDesign, Inc
T1 sequence (P05164 49-745): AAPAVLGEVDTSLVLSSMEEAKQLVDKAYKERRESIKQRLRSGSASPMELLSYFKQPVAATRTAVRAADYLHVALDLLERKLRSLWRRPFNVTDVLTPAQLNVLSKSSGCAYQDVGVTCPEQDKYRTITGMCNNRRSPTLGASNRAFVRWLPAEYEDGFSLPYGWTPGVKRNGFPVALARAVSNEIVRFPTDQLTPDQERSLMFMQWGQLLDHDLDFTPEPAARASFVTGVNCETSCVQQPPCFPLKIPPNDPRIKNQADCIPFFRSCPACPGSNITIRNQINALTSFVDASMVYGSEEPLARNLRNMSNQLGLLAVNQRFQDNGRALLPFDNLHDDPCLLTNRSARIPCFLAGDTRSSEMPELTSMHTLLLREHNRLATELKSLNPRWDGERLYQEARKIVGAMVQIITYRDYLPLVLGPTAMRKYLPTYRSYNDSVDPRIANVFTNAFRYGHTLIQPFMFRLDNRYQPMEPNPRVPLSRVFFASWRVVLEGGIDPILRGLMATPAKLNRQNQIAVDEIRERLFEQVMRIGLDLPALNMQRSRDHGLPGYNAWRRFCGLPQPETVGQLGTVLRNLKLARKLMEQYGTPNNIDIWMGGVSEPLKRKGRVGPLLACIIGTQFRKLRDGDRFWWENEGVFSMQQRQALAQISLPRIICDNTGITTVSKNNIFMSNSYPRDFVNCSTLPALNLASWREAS
Description: MPO/Matrigel implant mouse model, T1-weighted MR imaging. In kind it is in vivo. The conditions noted are these: for enhancement of MPO implant compared with control implant: right MPO/Matrigel vs left control; for enhancement of MPO implant compared with control implant / relative CNR before wash-out/decrease of the control side: 1.5 T; for maximum relative CNR ratio (CNR(right)/CNR(left)): MPO/Matrigel right vs control left. On the procedure:
To evaluate the monomeric substrates in vivo, we devised a mouse model that harbored 400 μL of Matrigel basement membrane matrix gel mixed 1:1 by volume with a solution containing 15 U of human MPO and glucose oxidase (as a source of hydrogen peroxide) that was injected into the right flank of the mouse. The left flank was injected with the enzyme-free Matrigel mixture. We subsequently performed T1-weighted MR imaging after the intravenous injection of Gd-DTPA-diSer substrate at the dose of […].
The MR imaging experiments were performed on a 1.5 T GE Excite scanner and a 4.7 T Bruker Pharmascan scanner. For all MR imaging experiments, precontrast T2-(TR=2000, TE=100, ETL=8, NEX=4, fast spin echo sequence) and T1-weighted images (TR=500, TE=11, NEX=4, spin echo sequence) with fat saturation were initially performed to locate the gels or area of inflammation. The substrates (0.3 mmol/kg) were subsequently injected via the tail vein of the mouse. The mouse was immediately imaged after the injection of the contrast agent using multiple T1-weighted sequences with fat saturation for at least 3 hours.
Ten-week old C57BL6 male mice were obtained from Jackson Laboratories. A total of 22 mice were used for the study. • 1. MPO/Matrigel imaging experiments: Matrigel™ (Beckton-Dickinson), a […] basement membrane matrix gel was used to immobilize human MPO and glucose oxidase (to supply H2O2 required for detecting MPO oxidative activity, Calbiochem). This was chosen to reflect deposits of human MPO in inflamed tissue in a mouse model. 400 μL of a mixture of Matrigel™ and MEM (Cambrex) was injected slowly into the thighs of each mouse one hour prior to imaging. The right thigh mixture also contained 15 U of MPO and 4 U of glucose oxidase (Calbiochem), while the left thigh mixture contained no enzyme and thus serves as an internal control. A total of 15 mice were used (3 mice each for 5-HT-DOTA(Gd), bis-5-HT-DTPA(Gd), bis-5-HT-DTPA-^111In, bis-tyramide-DTPA(Gd), and DTPA(Gd)). • 2. LPS/Matrigel experiments (n=3): This model was developed to induce endogeneous mouse MPO secretion and activation. 200 μL total volume Matrigel containing 10% heparin was injected slowly into the thighs of the mice 4 days prior to imaging. The right-sided mixture also contained E. coli lipopolysaccharide (LPS) at 10 μg/mL. One mouse was sacrificed for immunohistochemistry. • 3. Myositis experiments (n=4): LPS at 100 μg/mL in PBS was injected into each mouse intramuscularly in the right flank to produce myositis. The mice are imaged 24 hours after injection.
For normalized signal intensity measured on T1-weighted images, mean±standard deviation (SD) values were calculated in regions of interest (ROI). Contrast-to-noise (CNR) ratios were computed for each ROI according to the formula

Where “and” joins values, the source holds several entries; their conditions need not be identical. Equal entries are not always repeated. Entries after “also recorded” stand apart in the source; their conditions may differ.

On to `O=C([O-])CN(CCN(CC(=O)[O-])CC(=O)NCCc1c[nH]c2ccc(O)cc12)CCN(CC(=O)[O-])CC(=O)NCCc1c[nH]c2ccc(O)cc12.[Gd+3]` [2Gd^3+], for which, for the setting “mice, 4.7 T”, the “relative CNR increase before significant wash-out of the control side” value came to 1.8 fold. Further, the “maximum relative CNR increase” value (mice, at 240 minutes (washout from control implant)) is given as 2.5 times and the “maximum relative CNR increase” value (mice, in the first 143 minutes) was found to be 1.9 times. Besides, where the note is “mice”, the “enhancement of MPO implant compared with control implant” value was “significantly increased enhancement”. For the same compound, the “relative CNR before wash-out/decrease of the control side” value was 1.7-1.8 (mouse) and 1.9 (mouse, listed as bis-5-HT-DTPA(Gd)). Besides, for the setting “mouse”, the “maximum relative CNR ratio (CNR(right)/CNR(left))” value is 1.72 and 2.5. The “relative CNR ratio” value (mouse, at 185 minutes) stood at 2.0. Also, the “increase in the contrast-to-noise ratio, right (MPO-containing) vs left (control) flank” value (mouse, i.v. 0.3 mM/Kg, over 3 hours post injection) is 1.7-2.0 fold.
Take `CC(C(=O)NCC(=O)NCCc1c[nH]c2ccc(O)cc12)N1CCN(CC(=O)[O-])CCN(CC(=O)[O-])CCN(CC(=O)[O-])CC1.[Gd+3]` (stereo not shown) [5-HT-DOTA(Gd), Glycylmethyl DOTA(Gd) 5-Hydroxytryptamide]: under “mice”, the “enhancement of MPO implant compared with control implant” value is on record as “significantly increased enhancement”. In addition, the “maximum relative CNR ratio (CNR(right)/CNR(left))” value is recorded as 1.7 (mouse) and 1.72 (mouse, listed as serotonin-DOTA-Gd^3+ complex).
With `O=C([O-])CN(CCN(CC(=O)[O-])CC(=O)NCCc1ccc(O)cc1)CCN(CC(=O)[O-])CC(=O)NCCc1ccc(O)cc1.[Gd+3]` [1Gd^3+], where the note is “mice, listed as bis-tyramide-DTPA(Gd)”, the “enhancement of MPO implant compared with control implant” value is “did not result in significantly increased enhancement; also recorded: did not demonstrate significantly increased enhancement”.
